SMILES strings stand for the structures.

One assay deals with Endothelial lipase (EL) (Homo sapiens (Human), UniProt Q9Y5X9). The assay is described as follows: Endothelial lipase (EL) enzymatic assay with fluorescent substrate A10070 in DMPG vesicles.
Chain of Endothelial lipase (EL) (Q9Y5X9 21-500): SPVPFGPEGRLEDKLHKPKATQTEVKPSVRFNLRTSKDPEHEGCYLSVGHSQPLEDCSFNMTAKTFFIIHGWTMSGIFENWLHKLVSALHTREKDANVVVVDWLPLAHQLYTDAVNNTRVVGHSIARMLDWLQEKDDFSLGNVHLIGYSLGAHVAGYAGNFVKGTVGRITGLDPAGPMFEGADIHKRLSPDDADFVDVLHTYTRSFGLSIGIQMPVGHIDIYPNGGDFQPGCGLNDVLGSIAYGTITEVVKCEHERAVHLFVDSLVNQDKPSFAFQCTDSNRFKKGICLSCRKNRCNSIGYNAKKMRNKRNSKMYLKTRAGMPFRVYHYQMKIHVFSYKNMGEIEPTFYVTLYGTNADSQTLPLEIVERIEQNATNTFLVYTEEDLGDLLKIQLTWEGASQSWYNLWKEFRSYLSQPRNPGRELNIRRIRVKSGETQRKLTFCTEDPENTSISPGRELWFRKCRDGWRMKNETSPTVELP
Details: not given
The format is biochemical. In outline: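 Vesicles prepared: A10070 dried with DMPG, resuspended in HEPES pH 8.0/NaCl/EDTA, sonicated on ice. Enzyme incubated with compound 30 min at 37° C. Reaction started with 1:10 diluted vesicles. Fluorescence (490/530 nm) followed 60 min; slope from 300–900 secs gives rate.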
On to `COCCS(=O)(=O)C(C(=O)NCC(=O)NC1CC1)c1nc2cc(-c3ccc(C(=O)N4CCOCC4)cc3)ccc2s1` (centres unmarked) [Example 337, N-[(cyclopropyl-carbamoyl)methyl]-2-(2-methoxyethane-sulfonyl)-2-{5-[4-(morpholine-4-arbonyl)phenyl]-1,3-benzothiazol-2-yl}acetamide], for which the IC50 (commonly the concentration at which inhibition is half-maximal) turned out to be 0.038 µM.

On to `COCCS(=O)(=O)C(C(=O)NCC(=O)NC1CC1)c1nc2cc(C(F)(F)F)c(-c3cnnc(C)c3)cc2s1` (centres unmarked) [Example 187, N-[(cyclopropyl-carbamoyl)methyl]-2-(2-methoxyethane-sulfonyl)-2-[6-(6-methylpyridazin-4-yl)-5-(trifluoromethyl)-1,3-benzothiazol-2-yl]acetamide], for which the IC50 was 0.229 µM.

Regarding `COCCS(=O)(=O)C(C(=O)NCC(=O)NC1CC1)c1nc2cc(F)c(-c3ccc(C(=O)NCCc4ccccc4)cc3)cc2s1` (centres unmarked) [Example 573, 4-[2-({[(cyclopropyl-carbamoyl)methyl]carbamoyl}(2-methoxyethane-sulfonyl)methyl)-5-fluoro-1,3-benzothiazol-6-yl]-N-(2-phenylethyl) benzamide], half-maximal inhibition (IC50) required 0.003 µM. Against the preceding compound, the IC50 is about 76-fold lower.

Turning to `COCCS(=O)(=O)C(C(=O)NCC(=O)NC1CC1)c1nc2cc(-c3cccc(C(=O)OC(C)(C)C)c3)ccc2s1` (centres unmarked) [Example 134, tert-butyl 3-[2-({[(cyclopropyl-carbamoyl)methyl]carbamoyl}(2-methoxyethane-sulfonyl)methyl)-1,3-benzothiazol-5-yl]benzoate], inhibition was half-maximal at 0.002 µM (IC50).

On to `COCCS(=O)(=O)C(C(=O)NCC(=O)NC1CC1)c1nc2ccc(-c3cccc(N(C)C(=O)OC)c3)cc2s1` (centres unmarked) [Example 545, methyl N-{3-[2-({[(cyclopropyl-carbamoyl)methyl]carbamoyl}(2-methoxyethane-sulfonyl)methyl)-1,3-benzothiazol-6-yl]phenyl}-N-methylcarbamate], for which the IC50 is 0.013 µM.

`CC(C)S(=O)(=O)C(C(=O)NCC(=O)NC1CC1)c1nc2cc(F)c(-c3ccc(C4CC4)nc3)cc2s1` (centres unmarked) [Example 241, N-[(cyclopropyl-carbamoyl)methyl]-2-[6-(6-cyclopropyl-pyridin-3-yl)-5-fluoro-1,3-benzothiazol-2-yl]-2-(propane-2-sulfonyl) acetamide] gave a concentration for half-maximal inhibition (IC50) of 0.017 µM.

For the compound `COCCS(=O)(=O)C(C(=O)NCC(=O)NC1CC1)c1nc2ccc(-c3ccc(NC(=O)OC)cc3)cc2s1` (centres unmarked) [Example 100, methyl N-{4-[2-({[(cyclopropyl-carbamoyl)methyl]carbamoyl}(2-methoxyethane-sulfonyl)methyl)-1,3-benzothiazol-6-yl]phenyl} carbamate], it took 0.008 µM to reach half-maximal inhibition (IC50).

In the case of `COCCS(=O)(=O)C(C(=O)NCC(=O)NC1CC1)c1nc2cc(C)c(-c3ccn(C)c(=O)c3)cc2s1` (centres unmarked) [Example 172, N-[(cyclopropyl-carbamoyl)methyl]-2-(2-methoxyethane-sulfonyl)-2-[5-methyl-6-(1-methyl-2-oxo-1,2-dihydropyridin-4-yl)-1,3-benzothiazol-2-yl]acetamide], the IC50 turned out to be 0.027 µM.

In turn, `CS(=O)(=O)Nc1ccc(-c2cc3sc(C(C(=O)NCC(=O)NC4CC4)S(=O)(=O)CCC(F)(F)F)nc3cc2F)cc1` (centres unmarked) [Example 43, N-[(cyclopropyl-carbamoyl)methyl]-2-[5-fluoro-6-(4-methanesulfon-amidophenyl)-1,3-benzothiazol-2-yl]-2-(3,3,3-trifluoropropane-sulfonyl) acetamide] came in with an IC50 of 0.037 µM.

For the compound `COCCS(=O)(=O)C(C(=O)NCC(=O)NC1CC1)c1nc2ccc(-c3ccc(F)cc3)cc2s1` (centres unmarked) [Example 307, N-[(cyclopropyl-carbamoyl)methyl]-2-[6-(4-fluorophenyl)-1,3-benzothiazol-2-yl]-2-(2-methoxyethane-sulfonyl)acetamide], 0.015 µM corresponded to half-maximal inhibition (IC50).

`COCCS(=O)(=O)C(C(=O)NCC(=O)NC1CC1)c1nc2ccc(-c3ccc4c(c3)COC4=O)cc2s1` (centres unmarked) [Example 341, N-[(cyclopropyl-carbamoyl)methyl]-2-(2-methoxyethane-sulfonyl)-2-[6-(1-oxo-1,3-dihydro-2-benzofuran-5-yl)-1,3-benzothiazol-2-yl]acetamide] yielded an IC50 of 0.011 µM.

`CS(=O)(=O)C(C(=O)NCC(=O)NC1CC1)c1nc2cc(F)c(-c3ccnc(C(F)(F)F)c3)cc2s1` (centres unmarked) [Example 325, N-[(cyclopropyl-carbamoyl)methyl]-2-{5-fluoro-6-[2-(trifluoromethyl)pyridin-4-yl]-1,3-benzothiazol-2-yl}-2-methanesulfonyl-acetamide] came in with an IC50 of 0.015 µM.

On to `COCCS(=O)(=O)C(C(=O)NCC(=O)NC1CC1)c1nc2cc(C(=O)N3CC(C)(OC)C3)c(F)cc2s1` (centres unmarked) [Example 429, N-[(cyclopropyl-carbamoyl)methyl]-2-[6-fluoro-5-(3-methoxy-3-methylazetidine-1-carbonyl)-1,3-benzothiazol-2-yl}-2-(2-methoxyethane-sulfonyl)acetamide], for which the IC50 turned out to be 0.069 µM.

As for `CN(C)S(=O)(=O)C(C(=O)NCC(=O)NC1CC1)c1nc2c(F)cc(-c3ccc(N4CCCCC4=O)cc3)cc2s1` (centres unmarked) [Example 499, N-[(cyclopropyl-carbamoyl)methyl]-2-(dimethyl-sulfamoyl)-2-{4-fluoro-6-[4-(2-oxopiperidin-1-yl)phenyl]-1,3-benzothiazol-2-yl} acetamide], the IC50 was 0.004 µM.

Compound `Cc1cc2nc(C(C(=O)NCC(=O)NC3CC3)S(=O)(=O)C(C)C)sc2cc1-c1ccc2c(c1)C(=O)NC2` (centres unmarked) [Example 258, N-[(cyclopropyl-carbamoyl)methyl]-2-[5-methyl-6-(3-oxo-2,3-dihydro-1H-isoindol-5-yl)-1,3-benzothiazol-2-yl]-2-(propane-2-sulfonyl) acetamide] yielded an IC50 of 0.019 µM. Compared with the last compound, the IC50 is about 4.8-fold higher.

As to `COCCS(=O)(=O)C(C(=O)NCC(=O)NC1(C)CC1)c1nc2cc(-c3ccc(F)nc3)ccc2s1` (centres unmarked) [Example 392, 2-[5-(6-fluoropyridin-3-yl)-1,3-benzothiazol-2-yl]-2-(2-methoxyethane-sulfonyl)-N-{[(1-methylcyclopropyl)carbamoyl]methyl} acetamide], the IC50 was found to be 0.014 µM.

With `COCCS(=O)(=O)C(C(=O)NCC(=O)NC1CC1)c1nc2ccc(-c3cnc(F)c(C)c3)cc2s1` (centres unmarked) [Example 294, N-[(cyclopropyl-carbamoyl)methyl]-2-[6-(6-fluoro-5-methylpyridin-3-yl)-1,3-benzothiazol-2-yl]-2-(2-methoxyethane-sulfonyl)acetamide], half-maximal inhibition (IC50) required 0.036 µM.

`CS(=O)(=O)C(C(=O)NCC(=O)NC1CC1)c1nc2cc(F)c(-c3cnc(C4CC4)nc3)cc2s1` (centres unmarked) [Example 192, N-[(cyclopropyl-carbamoyl)methyl]-2-[6-(2-cyclopropyl-pyrimidin-5-yl)-5-fluoro-1,3-benzothiazol-2-yl]-2-methanesulfonyl-acetamide] showed an IC50 of 0.025 µM.

`COCCS(=O)(=O)C(C(=O)NCC(=O)NC1CC1)c1nc2ccc(-c3ccc(C4CC4)nc3)cc2s1` (centres unmarked) [Example 300, N-[(cyclopropyl-carbamoyl)methyl]-2-[6-(6-cyclopropyl-pyridin-3-yl)-1,3-benzothiazol-2-yl]-2-(2-methoxyethane-sulfonyl)acetamide] had an IC50 of 0.125 µM. Against the preceding compound, the IC50 is about 5-fold higher.

Turning to `CC(C)S(=O)(=O)C(C(=O)NCC(=O)NC1CC1)c1nc2cc(C(F)(F)F)c(-c3ccnn3C)cc2s1` (centres unmarked) [Example 180, N-[(cyclopropyl-carbamoyl)methyl]-2-[6-(1-methyl-1H-pyrazol-5-yl)-5-(trifluoromethyl)-1,3-benzothiazol-2-yl]-2-(propane-2-sulfonyl) acetamide], the IC50 was determined as 0.088 µM.

With `CN(C)S(=O)(=O)C(C(=O)NCC(=O)NC1CC1)c1nc2c(F)cc(-c3cccc(NC(=O)OCc4ccccc4)c3)cc2s1` (centres unmarked) [Example 502, benzyl N-{3-[2-({[(cyclopropyl-carbamoyl)methyl]carbamoyl} (dimethyl-sulfamoyl)methyl)-4-fluoro-1,3-benzothiazol-6-yl]phenyl} carbamate], the IC50 is 0.002 µM.

In the case of `COCCS(=O)(=O)C(C(=O)NCC(=O)NC1CC1)c1nc2cc(Cl)c(-c3ccc(F)nc3)cc2s1` (centres unmarked) [Example 105, 2-[5-chloro-6-(6-fluoropyridin-3-yl)-1,3-benzothiazol-2-yl]-N-[(cyclopropyl-carbamoyl)methyl]-2-(2-methoxyethane-sulfonyl)acetamide], the IC50 amounted to 0.028 µM.

Turning to `N#Cc1cccc(CS(=O)(=O)C(C(=O)NCC(=O)NC2CC2)c2nc3ccc(-c4ccc(F)nc4)cc3s2)c1` (centres unmarked) [Example 20, 2-[(3-cyanophenyl)methanesulfonyl]-N-[(cyclopropyl-carbamoyl)methyl]-2-[6-(6-fluoropyridin-3-yl)-1,3-benzothiazol-2-yl]acetamide], the IC50 was found to be 0.046 µM. Compared with the last compound, the IC50 is about 1.6-fold higher.

Regarding `CC(C)S(=O)(=O)C(C(=O)NCC(=O)NC1CC1)c1nc2cc(-c3ccc4cnn(C)c4c3)c(F)cc2s1` (centres unmarked) [Example 273, N-[(cyclopropyl-carbamoyl)methyl]-2-[6-fluoro-5-(1-methyl-1H-indazol-6-yl)-1,3-benzothiazol-2-yl]-2-(propane-2-sulfonyl)acetamide], the midpoint of inhibition, the IC50, lay at 0.009 µM.

Compound `CS(=O)(=O)C(C(=O)NCC(=O)NC1CC1)c1nc2cc(F)c(-c3ccc(-c4ccccc4)nc3)cc2s1` (centres unmarked) [Example 203, N-[(cyclopropyl-carbamoyl)methyl]-2-[5-fluoro-6-(6-phenylpyridin-3-yl)-1,3-benzothiazol-2-yl]-2-methanesulfonyl-acetamide] returned an IC50 of 0.003 µM. This IC50 is about 3-fold lower than that of the compound before.

The assay is the same for the next values; noted with them: EL from conditioned media of HT-1080 cells; 30 min preincubation at 37° C.
As for `O=C(CNC(=O)C(c1nc2cc(F)c(-c3cccn(Cc4ccccc4)c3=O)cc2s1)S(=O)(=O)CCC(F)(F)F)NC1CC1` (centres unmarked) [Example 591, 2-[6-(1-Benzyl-2-oxo-1,2-dihydropyridin-3-yl)-5-fluoro-1,3-benzothiazol-2-yl]-N-[(cyclopropylcarbamoyl)methyl]-2-(3,3,3-trifluoropropanesulfonyl)acetamide], the IC50 was found to be 0.268 µM.
